We go through 20 compounds from patent US9187472B2 (AbbVie Inc., priority 2012, dated 2015).

Test [1] deals with NAMPT (Homo sapiens, UniProt P43490). Description: TR-FRET Binding Assay of NAMPT with PRPP. The following applies: with 200 μM PRPP and 2.5 mM ATP; 2 nM NAMPT, 2 nM probe, 16 hours equilibration. In outline:
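Compounds were mixed with 2 nM His-tagged NAMPT, 2 nM probe, 1 nM terbium anti-His antibody, 200 μM PRPP and 2.5 mM ATP in assay buffer with 2% DMSO, then left 16 hours to permit possible enzymatic processing of compounds before time-resolved FRET was measured.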
(In TR-FRET formats the signal depends on donor and acceptor labels being close together.)

In test [2] the test system is PC3 cells. Description: NAMPT Cell Proliferation Assay. It counts as cell-based. The following applies: Homo sapiens, PC-3, 120 h, 5 days incubation, cell viability by Cell Titer Glo. The method, boiled down:
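Seed PC3 at 500 cells/well (RPMI, 10% HI-FBS), attach overnight; add compound, 10-fold series 10 μM → 1×10^−5 μM; incubate 5 d, 37° C/5% CO2; luminescent viability readout; fit % inhibition sigmoidally for IC50.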
Background: ATP-based viability assays read luminescence as a measure of living cells.

In test [3] the target is NAMPT (human, recombinant, C-terminally His-tagged) (Homo sapiens, UniProt P43490). Description: Time-Resolved Fluorescence Resonance Energy Transfer (TR-FRET) Binding Assay of NAMPT. The note with it: without substrates; 6.8 nM NAMPT, 200 nM probe, 3 hours equilibration. The method, boiled down:
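Compounds, diluted in half-log steps, are mixed with enzyme (6.8 nM), fluorescent probe (200 nM) and Tb-anti-His antibody (1 nM) in pH 7.5 HEPES buffer containing 10 mM MgCl2 and 1 mM DTT. Plates equilibrate 3 h at room temperature; normalized FRET ratios are fitted by four-parameter logistic regression for IC50.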

Chain of NAMPT (human, recombinant, C-terminally His-tagged) (P43490 whole entry): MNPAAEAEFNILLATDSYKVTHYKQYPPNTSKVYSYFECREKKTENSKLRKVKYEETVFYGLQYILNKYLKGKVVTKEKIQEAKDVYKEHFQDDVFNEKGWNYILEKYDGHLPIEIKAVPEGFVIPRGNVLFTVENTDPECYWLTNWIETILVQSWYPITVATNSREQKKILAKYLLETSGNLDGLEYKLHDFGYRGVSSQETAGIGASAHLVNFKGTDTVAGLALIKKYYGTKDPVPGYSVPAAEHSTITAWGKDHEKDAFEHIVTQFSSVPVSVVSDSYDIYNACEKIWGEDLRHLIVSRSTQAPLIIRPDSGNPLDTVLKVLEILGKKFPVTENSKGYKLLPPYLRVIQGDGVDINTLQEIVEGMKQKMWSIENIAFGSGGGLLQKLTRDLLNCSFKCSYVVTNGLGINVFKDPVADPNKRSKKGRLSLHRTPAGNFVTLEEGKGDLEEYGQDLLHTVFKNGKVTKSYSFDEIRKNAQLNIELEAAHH
Chain of NAMPT (P43490 whole entry): as above

On to `O=C(NCc1ccn2ccnc2c1)Nc1ccc(O[C@@H]2CCN(C(=O)CC3CC3)C2)cc1` [Example 332, 1-(4-{[(3R)-1-(cyclopropylacetyl)pyrrolidin-3-yl]oxy}phenyl)-3-(imidazo[1,2-a]pyridin-7-ylmethyl)urea], for which the half-maximal inhibitory concentration (IC50) in test [1] was 0.297 nM; in test [2] it was 64.3 nM; in test [3] it was 180 nM.
On the same counts, the results for `CC1(C(=O)N2CCC(c3ccc(C(=O)NCc4ccn5ccnc5c4)cc3)CC2)CC1` [Example 538, N-(imidazo[1,2-a]pyridin-7-ylmethyl)-4-{1-[(1-methylcyclopropyl)carbonyl]piperidin-4-yl}benzamide] are 0.514 nM, 3.33 nM and 275 nM.
For the compound `COCCC(=O)N(CC1CCOCC1)c1ncc(C(=O)NCc2ccc3nccn3c2)s1` [Example 142, N-(imidazo[1,2-a]pyridin-6-ylmethyl)-2-[(3-methoxypropanoyl)(tetrahydro-2H-pyran-4-ylmethyl)amino]-1,3-thiazole-5-carboxamide], the concentration for half-maximal inhibition (IC50) in test [1] came to 3.05 nM; in test [2] it was 18.2 nM; in test [3] it was 1430 nM.
On the same counts, the results for `CC[C@H](C)C(=O)N1CC(O)(c2ccc(C(=O)NCc3ccn4ccnc4c3)s2)C1` [Example 405, 5-{3-hydroxy-1-[(2S)-2-methylbutanoyl]azetidin-3-yl}-N-(imidazo[1,2-a]pyridin-7-ylmethyl)thiophene-2-carboxamide] are 0.214 nM, 22.1 nM and 78.4 nM.
On the same counts, the results for `CC(C)C(=O)N1CCC(c2ccc(C(=O)NCc3ccn4c(Cl)cnc4c3)cc2)CC1` [Example 575, N-[(3-chloroimidazo[1,2-a]pyridin-7-yl)methyl]-4-[1-(2-methylpropanoyl)piperidin-4-yl]benzamide] are 10.8 nM, more than 10000 nM and 3250 nM.
`O=C(NCc1ccn2ccnc2c1)c1ccc(C2CCN(C(=O)[C@@H]3CCCO3)C2)cc1` (stereo partly drawn) [Example 374, N-(imidazo[1,2-a]pyridin-7-ylmethyl)-4-{1-[(2S)-tetrahydrofuran-2-ylcarbonyl]pyrrolidin-3-yl}benzamide]: the concentration for half-maximal inhibition (IC50) in test [1] is 0.292 nM; in test [2] it was 792 nM; in test [3], 1670 nM.
The matching figures for `O=C(NCc1ccn2ccnc2c1)c1ccc(C2CN(C(=O)c3cccc(F)c3)C2)cc1` [Example 640, 4-[1-(3-fluorobenzoyl)azetidin-3-yl]-N-(imidazo[1,2-a]pyridin-7-ylmethyl)benzamide]: 0.817 nM, 50 nM and 170 nM.
The matching figures for `O=C(NCc1ccn2ccnc2c1)c1ccc(C2CN(C(=O)c3cccc(Cl)c3)C2)cc1` [Example 646, 4-[1-(3-chlorobenzoyl)azetidin-3-yl]-N-(imidazo[1,2-a]pyridin-7-ylmethyl)benzamide]: 0.51 nM, 130 nM and 195 nM.
On the same counts, the results for `Cc1ccc(C(=O)N2CCC(c3ccc(C(=O)NCc4ccn5ccnc5c4)s3)C2)cc1` (stereo not drawn) [Example 718, N-(imidazo[1,2-a]pyridin-7-ylmethyl)-5-[1-(4-methylbenzoyl)pyrrolidin-3-yl]thiophene-2-carboxamide] are 0.755 nM, 1.25 nM and 23.6 nM.
Regarding `COc1ccccc1C(=O)N1CCC(c2ccc(C(=O)NCc3ccn4ccnc4c3)s2)C1` (stereo not drawn) [Example 760, N-(imidazo[1,2-a]pyridin-7-ylmethyl)-5-[1-(2-methoxybenzoyl)pyrrolidin-3-yl]thiophene-2-carboxamide], the IC50 in test [1] is 0.71 nM; in test [2], 1.19 nM; in test [3], 28.9 nM.
As to `O=C(NCc1ccn2ccnc2c1)c1ccc(-c2cnn(C[C@@H]3CCCO3)c2)o1` [Example 742, N-(imidazo[1,2-a]pyridin-7-ylmethyl)-5-{1-[(2S)-tetrahydrofuran-2-ylmethyl]-1H-pyrazol-4-yl}furan-2-carboxamide], the IC50 in test [1] is 0.526 nM; in test [2], 10.5 nM; in test [3] it was 241 nM.
In the case of `CC(C)CS(=O)(=O)N1CCC(c2ncc(C(=O)NCc3ccn4ccnc4c3)s2)C1` (stereo not drawn) [Example 751, N-(imidazo[1,2-a]pyridin-7-ylmethyl)-2-{1-[(2-methylpropyl)sulfonyl]pyrrolidin-3-yl}-1,3-thiazole-5-carboxamide], the figures for the IC50 in test [1], in test [2] and in test [3] were 1 nM, 755 nM and 1240 nM, respectively.
The matching figures for `O=C(NCc1ccc2nccn2c1)c1ccc(-c2cnn(CC3CCC3)c2)s1` [Example 178, 5-[1-(cyclobutylmethyl)-1H-pyrazol-4-yl]-N-(imidazo[1,2-a]pyridin-6-ylmethyl)thiophene-2-carboxamide]: 0.169 nM, 1.85 nM and 14.3 nM.
The matching figures for `CC(C)OCC(=O)Nc1ccc(C(=O)NCc2ccc3nccn3c2)cc1` [Example 82, N-(imidazo[1,2-a]pyridin-6-ylmethyl)-4-{[(propan-2-yloxy)acetyl]amino}benzamide]: 6.42 nM, 67.9 nM and 357 nM.
For the compound `O=C(NCc1ccn2ccnc2c1)c1ccc(OC2CCN(C(=O)CC3CC3)CC2)cc1` [Example 414, 4-{[1-(cyclopropylacetyl)piperidin-4-yl]oxy}-N-(imidazo[1,2-a]pyridin-7-ylmethyl)benzamide], the IC50 was 0.307 nM in test [1], 853 nM in test [2] and 2630 nM in test [3].
Regarding `CC(C)(C)OC(=O)N1CCC(c2ccc(C(=O)Nc3ccc4nccn4c3)cc2)CC1` [Example 323, tert-butyl 4-[4-(imidazo[1,2-a]pyridin-6-ylcarbamoyl)phenyl]piperidine-1-carboxylate], the IC50 in test [1] was 0.232 nM; in test [2], 175 nM; in test [3], 1400 nM.
As for `O=C(NCc1ccn2ccnc2c1)c1ccc(C2CCN(S(=O)(=O)c3ccccc3)C2)cc1` (stereo not drawn) [Example 627, N-(imidazo[1,2-a]pyridin-7-ylmethyl)-4-[1-(phenylsulfonyl)pyrrolidin-3-yl]benzamide], the figures for the IC50 in test [1], in test [2] and in test [3] were 0.71 nM, 17.5 nM and 211 nM, respectively.
On the same counts, the results for `O=C(NCc1ccn2ccnc2c1)c1ccc(C2CCN(C(=O)c3ccc(F)cc3F)C2)cc1` (stereo not drawn) [Example 592, 4-[1-(2,4-difluorobenzoyl)pyrrolidin-3-yl]-N-(imidazo[1,2-a]pyridin-7-ylmethyl)benzamide] are 0.603 nM, 3.75 nM and 38.8 nM.
The matching figures for `COCCOCC(=O)Nc1ccc(NC(=O)Nc2ccc3nccn3c2)cc1` [Example 42, N-{4-[(imidazo[1,2-a]pyridin-6-ylcarbamoyl)amino]phenyl}-2-(2-methoxyethoxy)acetamide]: 0.381 nM, 1590 nM and 697 nM.
On the same counts, the results for `CS(=O)(=O)N1CC(c2ccc(C(=O)NCc3ccn4ccnc4c3)cc2)C1` [Example 623, N-(imidazo[1,2-a]pyridin-7-ylmethyl)-4-[1-(methylsulfonyl)azetidin-3-yl]benzamide] are 1.6 nM, 446 nM and 1010 nM.

What is called IC50 is the concentration at which inhibition is half-maximal.
